Data on 35 compounds can be found in patent publication US5391571A, “Cholesterol ester hydrolase inhibitors” (priority 1993, dated 1995).

The target of test [1] is T1, cholesterol esterase (EC 3.1.1.13) (Bos taurus, UniProt P30122).
T1 construct: purchased Sigma Chemical Company, St. Louis, Mo., USA C-1892; host or cells: bovine pancreas
Put plainly: in vitro inhibition of cholesteryl ester formation by cholesterol esterase. Type of test: biochemical, bovine. Particulars: for IC50: 37° C., cholesterol and oleic acid, cholesterol esterase from bovine pancreas, read-out: IC50 (concentration that inhibits one-half of the ester formation). On the procedure:
The ability of the compounds of this invention to inhibit the formation of cholesteryl esters and thereby interfere with and prevent assimilation of cholesterol into the lymphatic system and ultimately the blood stream was established by incubating the compounds at 37° C. with a mixture of cholesterol and oleic acid in the presence of buffered cholesterol esterase [(EC 3.1.1.13) Sigma Chemical Company, St. Louis, Mo., USA, No. C-1892, from bovine pancreas] and measuring the amount of ester formed, according to the procedure of Field, J. of Lipid Research, 25 389 (1984).

The subject of a further test is cholesterol absorption. As to the kind of experiment: in vivo cholesterol absorption study, serum radioactivity after oral [4-^14C] cholesterol. Particulars: Rattus norvegicus, 6 h, normal rats, serum radioactivity at six hours; for ED50: read-out: ED50 (effective dose inhibiting fifty percent of the cholesterol absorption of the control animals). The procedure: The in vivo cholesterol absorption studies were conducted in normal rats by oral administration of the compound being tested in propylene glycol and olive oil followed by oral administration of [4-^14 C] cholesterol in propylene glycol and olive oil, otherwise following the procedure of Cayen et al., J. Lipid Res. 20 162 (1979). The serum radioactivity was measured at six hours after dosing. The results of this study are reported in the following Table, where available, as percent decrease compared to control and in terms of the effective dose (ED50) inhibiting fifty-percent of the absorption of the control animals.

Setting [2] is: vs control, read-out: Decrease in [^14C] Cholesterol Absorption.

T1 sequence (P30122 19-597): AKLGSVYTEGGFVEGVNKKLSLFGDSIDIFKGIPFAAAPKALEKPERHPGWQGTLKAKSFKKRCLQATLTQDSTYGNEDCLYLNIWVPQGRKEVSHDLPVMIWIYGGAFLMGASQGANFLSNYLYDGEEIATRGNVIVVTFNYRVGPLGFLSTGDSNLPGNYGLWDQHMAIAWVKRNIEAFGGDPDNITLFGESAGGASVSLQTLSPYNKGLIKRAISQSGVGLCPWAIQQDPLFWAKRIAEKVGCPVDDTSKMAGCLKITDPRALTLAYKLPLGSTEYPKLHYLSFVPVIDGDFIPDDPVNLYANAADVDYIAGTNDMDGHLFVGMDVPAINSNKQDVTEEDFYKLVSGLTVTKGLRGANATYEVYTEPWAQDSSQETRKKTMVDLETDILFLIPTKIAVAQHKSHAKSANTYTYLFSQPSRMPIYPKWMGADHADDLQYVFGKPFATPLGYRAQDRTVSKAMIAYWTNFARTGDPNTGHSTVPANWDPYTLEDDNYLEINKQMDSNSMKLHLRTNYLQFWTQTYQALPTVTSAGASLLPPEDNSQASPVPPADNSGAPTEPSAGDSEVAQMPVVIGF

As to `CCCCNC(=O)Oc1ccc(Oc2ccccc2)cc1` [Example 1, Butylcarbamic acid 4-phenoxyphenyl ester], in test [1], the IC50 turned out to be 2 µM. In the test with cholesterol absorption (setting [2]), the inhibition in vivo at 100 mg/kg worked out at 82%. Further, the ED50 (commonly the midpoint of the dose-response relation) in the test with cholesterol absorption came out at 24 mg/kg.

As for `O=C(Oc1ccc(Oc2ccccc2)cc1)N1CCCCC1` [Example 2, 1-Piperidinecarboxylic acid 4-phenoxyphenyl ester], the IC50 in test [1] came out at 0.13 µM. For the same compound, the inhibition in vivo at 100 mg/kg with cholesterol absorption (setting [2]) came out at 82%. Besides, the ED50 with cholesterol absorption was 24 mg/kg. With `O=C(NCCCCc1ccccc1)Oc1ccc(Oc2ccccc2)cc1` [Example 3, (4-Phenylbutyl)carbamic acid 4-phenoxyphenyl ester], in test [1], the IC50 came to 16 µM. Moreover, the inhibition in vivo at 10 mg/kg with cholesterol absorption (10 mg/kg, vs control, read-out: Decrease in [^14C] Cholesterol Absorption) worked out at 70%. Also, the ED50 with cholesterol absorption came out at 6 mg/kg. For `CC(C)CCCC(C)NC(=O)Oc1ccc(Oc2ccccc2)cc1` (stereo not shown) [Example 4, (1,5-Dimethylhexyl)carbamic acid 4-phenoxyphenyl ester], the IC50 in test [1] amounted to 5 µM. The inhibition in vivo at 100 mg/kg with cholesterol absorption (setting [2]) came to 89%. Also, the ED50 in the test with cholesterol absorption came out at 13 mg/kg.

On to `O=C(Oc1ccc(Oc2ccccc2)cc1)N1CCC(c2ccccc2)CC1` [Example 5, 4-Phenyl1-piperidinecarboxylic acid 4-phenoxyphenl ester], for which the IC50 in test [1] stood at 33 µM. With `O=C(Oc1ccc(Oc2ccccc2)cc1)N1CCN(c2ccccc2)CC1` [Example 6, 4-Phenyl-1-piperazinecarboxylic acid 4-phenoxyphenyl ester], the IC50 in test [1] was found to be 55 µM. Regarding `O=C(Oc1ccc(Oc2ccccc2)cc1)N1CCOCC1` [Example 7, 4-Morpholinecarboxylic acid 4-phenoxyphenol ester], the IC50 in test [1] came out at 85 µM. With `CC1CCN(C(=O)Oc2ccc(Oc3ccccc3)cc2)CC1` [Example 8, 4-Methyl-1-piperidinecarboxylic acid 4-phenoxyphenyl ester], the inhibition in vivo at 65 mg/kg in the test with cholesterol absorption (setting [2]) is 90%. Further, the ED50 in the test on cholesterol absorption worked out at 10 mg/kg. Consider `CN1CCN(C(=O)Oc2ccc(Oc3ccccc3)cc2)CC1` [Example 9, 4-Methyl-1-piperazinecarboxylic acid 4-phenoxyphenyl ester], for which the IC50 in test [1] is more than 100 µM. Besides, in the test with cholesterol absorption (setting [2]), the inhibition in vivo at 100 mg/kg was found to be 40%. As for `O=C(Oc1ccc(Oc2ccccc2)cc1)N1CCSCC1` [Example 10, 4-Thiomorpholinecarboxylic acid 4-phenoxyphenyl ester], the IC50 in test [1] was 1.1 µM. The inhibition in vivo at 65 mg/kg in the test on cholesterol absorption (setting [2]) was 74%. In addition, in the test with cholesterol absorption, the ED50 was 14 mg/kg. In the case of `CCCCCCCCNC(=O)Oc1ccc(Oc2ccccc2)cc1` [Example 11, Octylcarbamic acid 4phenoxyphenyl ester], in test [1], the IC50 stood at 20 µM. For the compound `O=C(Oc1ccc(Oc2ccccc2)cc1)N1CCCC1` [Example 12, 1-Pyrrolidinecarboxylic acid 4-phenoxyphenyl ester], the IC50 in test [1] worked out at 0.3 µM. Besides, the inhibition in vivo at 65 mg/kg in the test with cholesterol absorption (setting [2]) was 43%. On to `O=C(NC1CCCCC1)Oc1ccc(Oc2ccccc2)cc1` [Example 13, Cyclohexylcarbamic acid 4-phenoxyphenyl ester], for which the IC50 in test [1] was found to be 6.7 µM. Same read-out and setting: the result for `O=C(NCC1CCCCC1)Oc1ccc(Oc2ccccc2)cc1` [Example 14, Cyclohexylmethylcarbamic acid 4phenoxyphenyl ester] reads 9.3 µM. On to `O=C(NC12CC3CC(CC(C3)C1)C2)Oc1ccc(Oc2ccccc2)cc1` [Example 15], for which, in test [1], the IC50 was 17.5 µM. Besides, the inhibition in vivo at 100 mg/kg with cholesterol absorption (setting [2]) worked out at 76%.

For the compound `CC(C)(C)CC(C)(C)NC(=O)Oc1ccc(Oc2ccccc2)cc1` [Example 16, (1,1,3,3-Tetramethylbutyl)carbamic acid 4-phenoxyphenyl ester], in test [1], the IC50 is more than 100 µM.

For `CCCCC(CC)NC(=O)Oc1ccc(Oc2ccccc2)cc1` (stereo not shown) [Example 17, (1-Ethylpentyl)carbamic acid 4-phenoxyphenyl ester], the IC50 in test [1] was determined as 13.3 µM.

As to `CC(C)CC(C)NC(=O)Oc1ccc(Oc2ccccc2)cc1` (stereo not shown) [Example 18, (1,3-Dimethylbutyl)carbamic acid 4phenoxyphenyl ester], the IC50 in test [1] was 16.5 µM. `CCCCNC(=O)Oc1ccc(Oc2ccc(C)cc2)cc1` [Example 19, Butylcarbamic acid 4-(4-methylphenoxy)phenyl ester]: the IC50 in test [1] was determined as 5.4 µM. Still for that read-out and setting: the result for `CCCCNC(=O)Oc1ccc(Oc2ccc(Cl)cc2)cc1` [Example 21, Butylcarbamic acid 4-(4-chlorophenoxy)phenyl ester] reads 6.1 µM. Take `CCCCNC(=O)Oc1c(C)cc(Oc2ccc(C)cc2)cc1C` [Example 22, Butylcarbamic acid 2,6-dimethyl-4-(4-methylphenoxy)phenyl ester]: the inhibition (commonly the drop in the measured response relative to a control, in per cent) at 30 µM in test [1] (at 30 μM) was found to be 20%. For `Cc1ccc(Oc2ccc(OC(=O)NC(C)CCCC(C)C)cc2)cc1` (stereo not shown) [Example 24, (1,5-Dimethylhexyl)carbamic acid 4-(4-methylphenoxy)phenyl ester], the IC50 in test [1] was 5.6 µM. Still for that read-out and setting: the result for `CCCCCC(C)NC(=O)Oc1ccc(Oc2ccccc2)cc1` (stereo not shown) [Example 26] reads 2.9 µM.

For the compound `CC(C)CCCC(C)NC(=O)Oc1ccc(Oc2ccc(Cl)cc2)cc1` (stereo not shown) [Example 27, (1,5-Dimethylhexyl)carbamic acid 4-(4-chlorophenoxy)phenyl ester], in test [1], the IC50 was 7.1 µM. Same read-out and setting: the result for `CCCCNC(=O)Oc1ccc(Oc2ccccc2)cc1F` [Example 28, Butylcarbamic acid 2-fluoro-4-phenoxyphenyl ester] reads 1.9 µM.

`CCCCNC(=O)Oc1ccc(Oc2ccc(OC)cc2)cc1` [Example 29, Butylcarbamic acid 4-(4-methoxyphenoxy)phenyl ester]: in test [1], the IC50 came out at 13 µM.

Turning to `COc1ccc(Oc2ccc(OC(=O)NC(C)CCCC(C)C)cc2)cc1` (stereo not shown) [Example 31, (1,5-Dimethylhexyl)carbamic acid 4-(4-methoxyphenoxy)phenyl ester], in test [1], the IC50 is 26 µM. Same read-out and setting: the result for `CCCCNC(=O)Oc1ccc(Oc2ccc(C(C)(C)C)cc2)cc1` [Example 32, Butylcarbamic acid 4-[4-(1,1-dimethylethyl)phenoxy]phenyl ester] reads more than 100 µM; that for `CCCCCCNC(=O)Oc1ccc(Oc2ccccc2)cc1` [Example 36, Hexylcarbamic acid 4-phenoxyphenyl ester], 1.7 µM; that for `CC(C)CCCC(C)NC(=O)Oc1ccc(Oc2ccccc2)cc1F` (stereo not shown) [Example 37, (1,5-Dimethylhexyl)carbamic acid 2-fluoro-4-phenoxyphenyl ester], 1.4 µM.

For the compound `O=C(Oc1ccc(Oc2ccccc2)cc1)N1CCCCCC1` [Example 40, Hexahydro-1H-azepine-1-carboxylic acid 4-phenoxyphenyl ester], the IC50 in test [1] was determined as 19 µM. On the same count and under the same terms, the result for `CCCCNC(=O)Oc1ccc(Oc2ccccc2)cc1C(=O)OC` [Example 50] reads 5.1 µM; that for `O=C(Oc1ccc(Oc2ccccc2)cc1)N1CCC(CO)CC1` [Example 56, 4-(Hydroxymethyl)-1-piperidinecarboxylic acid 4-phenoxyphenyl ester], 2.1 µM; that for `O=C(Oc1ccc(Oc2ccccc2)cc1)N1CCC(CI)CC1` [Example 59, 4-(Iodomethyl)-1-piperidinecarboxylic acid 4-phenoxyphenyl ester], 0.27 µM. `CCCCCCN(CCCCCC)CC1CCN(C(=O)Oc2ccc(Oc3ccccc3)cc2)CC1` [Example 62, 4-(Dihexylaminomethyl)-1-piperidinecarboxylic acid 4-phenoxyphenyl ester]: in test [1], the IC50 is 15 µM.
